Assay results: US9382254B2, “Compounds and pharmaceutical compositions thereof for the treatment of cystic fibrosis” (Galapagos NV, priority 2013, dated 2016)

How the values were obtained:
CFTR ΔF508 mutant = molecular target: T1, CFTR ΔF508 mutant (Homo sapiens, UniProt P13569, DEL508-508); assay: YFP-halide influx assay for the CFTR-ΔF508 mutation (384 well, FDSS/μCell); format: cell-based; settings: CFBE41o- cells, CFTR-ΔF508, 1×D-PBS, fluorescence after 36 seconds
T1 construct: expressed in transfected cells; host or cells: CFBE41o- (adenoviral transduction)
T1 sequence (P13569 with tags, fused parts or gaps DEL508-508): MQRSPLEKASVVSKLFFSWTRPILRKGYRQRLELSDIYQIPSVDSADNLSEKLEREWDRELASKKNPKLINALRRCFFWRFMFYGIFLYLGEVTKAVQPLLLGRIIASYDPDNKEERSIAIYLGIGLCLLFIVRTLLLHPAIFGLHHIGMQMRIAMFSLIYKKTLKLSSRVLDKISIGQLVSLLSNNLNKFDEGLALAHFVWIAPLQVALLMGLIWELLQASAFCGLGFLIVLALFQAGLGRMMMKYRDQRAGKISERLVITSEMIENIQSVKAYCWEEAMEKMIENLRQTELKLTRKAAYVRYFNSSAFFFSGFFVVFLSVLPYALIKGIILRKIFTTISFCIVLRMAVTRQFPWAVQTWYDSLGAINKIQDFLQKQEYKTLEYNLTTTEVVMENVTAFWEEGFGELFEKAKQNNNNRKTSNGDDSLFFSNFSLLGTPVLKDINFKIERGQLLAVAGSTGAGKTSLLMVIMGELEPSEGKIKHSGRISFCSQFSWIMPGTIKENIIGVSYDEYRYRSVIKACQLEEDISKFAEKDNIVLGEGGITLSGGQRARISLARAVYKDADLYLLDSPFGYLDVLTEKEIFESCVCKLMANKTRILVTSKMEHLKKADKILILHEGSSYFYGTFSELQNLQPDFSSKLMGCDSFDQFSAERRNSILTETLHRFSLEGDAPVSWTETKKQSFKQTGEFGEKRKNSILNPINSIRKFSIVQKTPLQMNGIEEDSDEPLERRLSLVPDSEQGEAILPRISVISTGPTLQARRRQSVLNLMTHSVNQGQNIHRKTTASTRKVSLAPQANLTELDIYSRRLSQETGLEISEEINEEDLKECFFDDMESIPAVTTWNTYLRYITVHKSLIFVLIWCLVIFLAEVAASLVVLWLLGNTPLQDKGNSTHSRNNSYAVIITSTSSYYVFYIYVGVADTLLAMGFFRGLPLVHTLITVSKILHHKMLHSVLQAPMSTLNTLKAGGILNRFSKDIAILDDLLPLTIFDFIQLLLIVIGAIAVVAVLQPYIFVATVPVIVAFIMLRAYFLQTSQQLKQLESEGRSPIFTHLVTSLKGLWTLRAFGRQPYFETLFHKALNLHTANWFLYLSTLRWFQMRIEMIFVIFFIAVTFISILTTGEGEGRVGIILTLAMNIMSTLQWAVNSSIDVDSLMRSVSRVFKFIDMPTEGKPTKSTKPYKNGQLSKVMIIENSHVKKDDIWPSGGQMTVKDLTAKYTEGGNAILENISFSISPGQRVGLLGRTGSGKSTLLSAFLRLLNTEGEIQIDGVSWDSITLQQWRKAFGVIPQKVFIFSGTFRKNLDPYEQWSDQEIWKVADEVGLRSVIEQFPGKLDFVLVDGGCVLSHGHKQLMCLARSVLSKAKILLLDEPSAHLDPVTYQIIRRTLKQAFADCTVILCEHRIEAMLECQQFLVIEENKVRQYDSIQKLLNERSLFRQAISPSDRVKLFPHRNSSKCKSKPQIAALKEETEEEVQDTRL
Text: The YFP halide influx assay measures the functionality of the cystic fibrosis Transmembrane Conductance regulator (CFTR) channels in the cystic fibrosis bronchial epithelium cell line CFBE41o-. The assay is used to evaluate the capacity of compounds to increase the open probability of existing CFTR channels in the membrane. It makes use of the observation that the yellow fluorescent protein (YFP) variant YFP H148Q, I152L has its fluorescence substantially quenched by halide ions like Cl— and I—. (Galietta, Haggie, & Verkman, 2001) (Nagai, et al., 2002)
For this purpose, CFBE41o-cells are seeded in 384 well plates (3000 CFBE cells/well). One day after seeding, the CFBE cells are transduced with adenoviral vectors that direct the expression of the CFTR ΔF508 mutant and of the YFP reporter. Cells are incubated at 27° C., 5% CO2 for 24 hours so as to allow for the proper folding and migration to the membrane of the CFTR channel or treated with a CFTR modulator during 24 h at 37° C.
(§1) The I— induced quenching of fluorescence is recorded on an immediately after injection of I— for 2 min on an FDSS/μCell (Hamamatsu). The capacity of a compound to increase the channel opening is directly correlated with the decrease in fluorescence, and is expressed as (1-(fluorescence after 36 seconds (F)/fluorescence before injection (F0))) and an EC50 can be derived from a (1-F/F0) vs compound concentration plot.

CFTR G551D mutant = molecular target: T2, CFTR G551D mutant (Homo sapiens, UniProt P13569, G551D); assay: YFP-halide influx assay for the CFTR-G551D mutation; format: cell-based; settings: HEK293 cells, forskolin 10.67 μM
T2 construct: expressed in transfected cells; host or cells: HEK293 (reverse transfection with plasmid)
T2 sequence (P13569 whole entry G551D): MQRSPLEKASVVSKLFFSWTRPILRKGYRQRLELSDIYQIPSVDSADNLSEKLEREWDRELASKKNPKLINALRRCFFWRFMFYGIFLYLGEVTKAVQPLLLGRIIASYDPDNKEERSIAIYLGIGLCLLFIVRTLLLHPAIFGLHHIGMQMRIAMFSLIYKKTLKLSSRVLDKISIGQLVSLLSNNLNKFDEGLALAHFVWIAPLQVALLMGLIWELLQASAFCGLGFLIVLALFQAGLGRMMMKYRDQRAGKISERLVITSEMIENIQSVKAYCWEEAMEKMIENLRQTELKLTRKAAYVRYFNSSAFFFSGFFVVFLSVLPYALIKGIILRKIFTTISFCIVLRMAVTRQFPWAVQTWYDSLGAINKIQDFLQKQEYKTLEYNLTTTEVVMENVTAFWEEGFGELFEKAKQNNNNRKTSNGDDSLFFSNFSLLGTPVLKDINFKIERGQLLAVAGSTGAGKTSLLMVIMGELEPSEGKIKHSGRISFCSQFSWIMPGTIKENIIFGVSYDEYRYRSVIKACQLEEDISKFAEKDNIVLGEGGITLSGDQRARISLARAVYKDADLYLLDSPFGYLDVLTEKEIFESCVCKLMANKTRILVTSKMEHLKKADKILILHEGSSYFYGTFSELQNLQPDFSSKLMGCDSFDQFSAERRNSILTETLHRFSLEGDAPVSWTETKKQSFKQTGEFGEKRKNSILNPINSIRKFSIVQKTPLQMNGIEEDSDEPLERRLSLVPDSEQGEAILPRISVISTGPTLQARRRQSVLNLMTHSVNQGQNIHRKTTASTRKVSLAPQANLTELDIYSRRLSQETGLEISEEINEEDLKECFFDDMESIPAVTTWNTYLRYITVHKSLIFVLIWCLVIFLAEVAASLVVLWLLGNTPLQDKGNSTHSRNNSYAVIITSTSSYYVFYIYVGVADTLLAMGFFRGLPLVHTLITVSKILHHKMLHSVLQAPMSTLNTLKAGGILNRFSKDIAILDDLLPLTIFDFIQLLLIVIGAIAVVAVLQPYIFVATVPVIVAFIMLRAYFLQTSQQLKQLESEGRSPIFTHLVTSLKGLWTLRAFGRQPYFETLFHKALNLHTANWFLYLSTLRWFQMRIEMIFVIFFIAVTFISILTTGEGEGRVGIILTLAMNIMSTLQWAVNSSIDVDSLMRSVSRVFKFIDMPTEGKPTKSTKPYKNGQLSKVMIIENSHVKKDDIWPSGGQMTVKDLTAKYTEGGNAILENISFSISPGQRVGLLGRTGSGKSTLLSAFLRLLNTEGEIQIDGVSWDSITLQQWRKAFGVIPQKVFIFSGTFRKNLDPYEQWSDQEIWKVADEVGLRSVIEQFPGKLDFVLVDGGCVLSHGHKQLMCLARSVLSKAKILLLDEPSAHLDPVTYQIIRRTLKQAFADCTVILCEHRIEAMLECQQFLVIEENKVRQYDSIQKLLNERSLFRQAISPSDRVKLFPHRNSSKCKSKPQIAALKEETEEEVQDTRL
Text: The YFP halide influx assay measures the functionality of the cystic fibrosis Transmembrane Conductance regulator (CFTR) channels. The assay is used to evaluate the capacity of compounds to increase the channel opening of existing mutant CFTR channels in the membrane. It makes use of the observation that the yellow fluorescent protein (YFP) variant YFP H148Q, I152L, […] has its fluorescence substantially quenched by halide ions like Cl^− and I^−. (Galietta, Haggie, & Verkman, 2001)
For this purpose, HEK293-cells are seeded in 96 well plates. During seeding, the cells are reverse-transfected with plasmid vectors that direct the expression of the CFTR G551D mutant and of the YFP reporter. Cells are incubated at 37° C., 5% CO2 for 24 hours so as to allow for sufficient expression of the CFTR protein.
as §1, with “I^−-induced” for “I— induced”, “recorded” for “recorded on an”, “I^−” for “I—”, “7 seconds.” for “2 min on an FDSS/μCell (Hamamatsu).”, “7” for “36”

SMILES	EC50 (CFTR ΔF508 mutant) [nM]	EC50 (CFTR G551D mutant) [nM]	EC50 (CFTR G551D mutant; class symbol) [nM]
CC(C)(O)C(=O)Nc1sc(S(=O)(=O)c2ccc(C#N)cc2)cc1C(N)=O [Compound 381, 5-(4-cyanophenyl)sulfonyl-2-[(2-hydroxy-2-methyl-propanoyl)amino] thiophene-3-carboxamide]	55.9	1310	–
C[C@H](CO)C(=O)Nc1sc(S(=O)(=O)c2ccc(OC(F)(F)F)cc2)cc1C(N)=O [Compound 382, 2-[[(2R)-3-hydroxy-2-methyl-propanoyl]amino]-5-[4-(trifluoromethoxy)phenyl] sulfonyl-thiophene-3-carboxamide]	66.1	873	–
Cc1cc(S(=O)(=O)c2cc(C(N)=O)c(NC(=O)C(C)(C)O)s2)ncc1F [Compound 383, 5-[(5-fluoro-4-methyl-2-pyridyl)sulfonyl]-2-[(2-hydroxy-2-methyl-propanoyl)amino] thiophene-3-carboxamide]	135	2610	–
Cc1ccc(S(=O)(=O)c2cc(C(N)=O)c(NC(=O)C(C)(C)O)s2)nc1 [Compound 384, 2-[(2-hydroxy-2-methyl-propanoyl)amino]-5-[(5-methyl-2-pyridyl)sulfonyl] thiophene-3-carboxamide]	159	2740	–
CC(C)(O)C(=O)Nc1sc(S(=O)(=O)c2ccc(Cl)nc2)cc1C(N)=O [Compound 385, 5-[(6-chloro-3-pyridyl)sulfonyl]-2-[(2-hydroxy-2-methyl-propanoyl)amino] thiophene-3-carboxamide]	62.6	1180	–
CC(CO)C(=O)Nc1sc(S(=O)(=O)c2cc(Cl)ccc2OC(F)(F)F)cc1C(N)=O (stereo not shown) [Compound 386, 5-[5-chloro-2-(trifluoromethoxy)phenyl] sulfonyl-2-[(3-hydroxy-2-methyl-propanoyl)amino] thiophene-3-carboxamide]	2	25.9	–
CC(C)(O)C(=O)Nc1sc(S(=O)(=O)c2ccc(Cl)cc2OC(F)(F)F)cc1C(N)=O [Compound 388, 5-[4-chloro-2-(trifluoromethoxy)phenyl] sulfonyl-2-[(2-hyroxy-2-methyl-propanoyl)amino] thiophene-3-carboxamide]	43.3	695	–
CC(CO)C(=O)Nc1sc(S(=O)(=O)c2ccc(OC(F)(F)F)cn2)cc1C(N)=O (stereo not shown) [Compound 392, 2-[(3-hydroxy-2-methyl-propanoyl)amino]-5-[[5-(trifluoromethoxy)-2-pyridyl]sulfonyl] thiophene-3-carboxamide]	84.6	1600	–
CC(C)(O)C(=O)Nc1sc(S(=O)(=O)c2ccc(C(F)F)cn2)cc1C(N)=O [Compound 395, 5-[[5-(difluoromethyl)-2-pyridyl]sulfonyl]-2-[(2-hydroxy-2-methyl-propanoyl)amino] thiophene-3-carboxamide]	294	1860	–
CC(O)C(=O)Nc1sc(S(=O)(=O)c2ccc(C(F)(F)F)cn2)cc1C(N)=O (stereo not shown) [Compound 396, 2-(2-hydroxypropanoylamino)-5-[[5-(trifluoromethyl)-2-pyridyl]sulfonyl] thiophene-3-carboxamide]	110	1350	–
CC(O)C(=O)Nc1sc(S(=O)(=O)c2ccc(C(F)(F)F)cc2)cc1C(N)=O (stereo not shown) [Compound 398, 2-(2-hydroxypropanoylamino)-5-[4-(trifluoromethyl)phenyl]sulfonyl-thiophene-3-carboxamide]	22.8	515	–
Cc1cc(C#N)cc(S(=O)(=O)c2cc(C(N)=O)c(NC(=O)C(C)(C)O)s2)c1 [Compound 399, 5-(3-cyano-5-methyl-phenyl)sulfonyl-2-[(2-hydroxy-2-methyl-propanoyl)amino] thiophene-3-carboxamide]	56.6	1900	–
COc1ccc(S(=O)(=O)c2cc(C(N)=O)c(NC(=O)C(C)(C)O)s2)cc1 [Compound 400, 2-[(2-hydroxy-2-methyl-propanoyl)amino]-5-(4-methoxyphenyl)sulfonyl-thiophene-3-carboxamide]	56.7	1950	–
CC(O)C(=O)Nc1sc(S(=O)(=O)c2ccc(OC(F)F)cc2)cc1C(N)=O (stereo not shown) [Compound 403, 5-[4-(difluoromethoxy)phenyl] sulfonyl-2-(2-hydroxypropanoylamino) thiophene-3-carboxamide]	27.5	1610	–
CC(C)(O)C(=O)Nc1sc(S(=O)(=O)c2ccc(C#N)cc2F)cc1C(N)=O [Compound 406, 5-(4-cyano-2-fluoro-phenyl)sulfonyl-2-[(2-hydroxy-2-methyl-propanoyl)amino] thiophene-3-carboxamide]	56.1	1310	–
CC(C)(O)C(=O)Nc1sc(S(=O)(=O)c2cccc(C#N)c2)cc1C(N)=O [Compound 409, 5-(3-cyanophenyl)sulfonyl-2-[(2-hydroxy-2-methyl-propanoyl)amino] thiophene-3-carboxamide]	47.7	2370	–
COc1c(Cl)ncnc1S(=O)(=O)c1cc(C(N)=O)c(NC(=O)C(C)(C)O)s1 [Compound 414, 5-(6-chloro-5-methoxy-pyrimidin-4-yl)sulfonyl-2-[(2-hydroxy-2-methyl-propanoyl)amino] thiophene-3-carboxamide]	111	–	> 1000
COc1cnc(C(F)(F)F)nc1S(=O)(=O)c1cc(C(N)=O)c(NC(=O)C(C)(C)O)s1 [Compound 415, 2-[(2-hydroxy-2-methyl-propanoyl)amino]-5-[5-methoxy-2-(trifluoromethyl)pyrimidin-4-yl]sulfonyl-thiophene-3-carboxamide]	305	–	> 1000
CC(C)(O)C(=O)Nc1sc(S(=O)(=O)c2nccnc2C(F)(F)F)cc1C(N)=O [Compound 417, 2-[(2-hydroxy-2-methyl-propanoyl)amino]-5-[3-(trifluoromethyl)pyrazin-2-yl]sulfonyl-thiophene-3-carboxamide]	147	6660	–
CC(C)(O)C(=O)Nc1sc(S(=O)(=O)c2cc(CC#N)cc(OC(F)(F)F)c2)cc1C(N)=O [Compound 428, 5-[3-(cyanomethyl)-5-(trifluoromethoxy)phenyl] sulfonyl-2-[(2-hydroxy-2-methyl-propanoyl)amino] thiophene-3-carboxamide]	76.1	3330	–
CC(C)(O)C(=O)Nc1sc(S(=O)(=O)c2ccc(C(F)(F)F)nn2)cc1C(N)=O [Compound 431, 2-[(2-hydroxy-2-methyl-propanoyl)amino]-5-[6-(trifluoromethyl)pyridazin-3-yl]sulfonyl-thiophene-3-carboxamide]	150	2220	–
CN1COCc2cc(S(=O)(=O)c3cc(C(N)=O)c(NC(=O)C(C)(C)O)s3)ccc21 [Compound 434, 2-[(2-hdyroxy-2-methyl-propanoyl)amino]-5-[(1-methyl-2,4-dihydro-3,1-benzoxazin-6-yl)sulfonyl] thiophene-3-carboxamide]	227	1930	–
CC(C)(O)C(=O)Nc1sc(S(=O)(=O)c2cccnc2C(F)(F)F)cc1C(N)=O [Compound 436, 2-[(2-hydroxy-2-methyl-propanoyl)amino]-5-[[2-(trifluoromethyl)-3-pyridyl]sulfonyl] thiophene-3-carboxamide]	32.1	1730	–
CC(C)(O)C(=O)Nc1sc(S(=O)(=O)c2nc(CO)ccc2C(F)(F)F)cc1C(N)=O [Compound 438, 2-[(2-hydroxy-2-methyl-propanoyl)amino]-5-[[6-(hydroxymethyl)-3-(trifluoromethyl)-2-pyridyl]sulfonyl] thiophene-3-carboxamide]	216	–	> 1000
Cc1c(S(=O)(=O)c2ccc(C(F)(F)F)cc2F)sc(NC(=O)C(C)(C)O)c1C(N)=O [Compound 439, 5-[2-fluoro-4-(trifluoromethyl)phenyl]sulfonyl-2-[(2-hydroxy-2-methyl-propanoyl)amino]-4-methyl-thiophene-3-carboxamide]	7.16	6660	–
CC(C)(O)C(=O)Nc1sc(S(=O)(=O)c2cc(Cl)cnc2C(F)(F)F)cc1C(N)=O [Compound 440, 5-[[5-chloro-2-(trifluoromethyl)-3-pyridyl]sulfonyl]-2-[(2-hydroxy-2-methyl-propanoyl)amino] thiophene-3-carboxamide]	13	2190	–
